According to publication PMC4370505 (PLoS ONE, 2015):

Columns and labels:
[1] = cited from earlier work
[2] = Single dose intravenous pharmacokinetic study in Wistar rats; assay type: in vivo; details: 10 mg/kg
Description: Pharmacokinetic studies were conducted with male Wistar rats. Rats were acclimatized and housed at 22°C under 12h light/dark cycle with free access to sterilized commercial food pellets and water in the animal research facility (Curtin University) for at least 3 days prior to experiments. All animal experiments were approved by the Animal Ethics Committee of Curtin University (Approval no: R37–10 Amendment Approval No: A47–10 and A56–10) and were performed according to the Australian Code of Practice for the care and use of animals for scientific purposes. In order to minimize pain and suffering, the dosing and bleeding procedures were conducted under anesthesia (isoflurane at 5% for the induction and 2% for the maintenance, in combination with 1.5% oxygen). At the end of the study, rats were scarified by anesthetic euthanasia using 5% isofluorane with 1.5% oxygen. […] Blood (300 μL) was collected from the tail vein at 0.08, 0.5, 1, 2 and 4 hours into EDTA coated tubes. The blood samples were immediately stored in ice and protected from light until centrifuged (12000 × g at 4°C for 10 min). […] Metabolites were identified using LC-MS/MS (Applied Biosystems, 4000 QTRAP, Toronto, Canada).
Data analysis and representation (mean ± SD) were performed with SigmaPlot version 12 (Systat Software, Inc., Chicago, IL). Pharmacokinetic analysis was performed using Kinetica Version 5.0 (Thermo Fisher Scientific, Inc., Waltham, MA). Non compartmental analysis of the plasma concentration-time data was used to estimate the area under the curve (AUC0-∞; log-linear trapezoidal method), elimination half-life (t½), apparent clearance (CL; Dose÷AUC0-∞), mean residence time (MRT) and volume of distribution (Vss; CL×MRT). Statistical analysis of pharmacokinetic parameters was performed using unpaired t-test with Graphpad Prism software (version 6.05). Pharmacokinetic parameters obtained for each group were analyzed against the resveratrol group and p values were reported.

[3] = In vitro metabolism in rat liver microsomes with UDPA; assay type: in vitro ADME; details: rat liver microsomes with UGT reaction mixture, 37°C
Description: Incubations of test substances in reaction mixtures without microsomes were used as a control. All samples were protected against light during the experiments.

[4] = set-up: method as in PMID 18501919; details: cited from earlier work
[5] = Behaviour of conjugates in aqueous solution (solubility / self-aggregation); assay type: physicochemical; details: up to 10 mg/mL
Description: A solution of 40 mg of MeO-PEG-PLAO-Succ-RSV conjugate in acetonitrile (2 mL) was prepared. The stock solution was diluted with water (4 mL). The acetonitrile was removed by bubbling inert nitrogen gas at room temperature in the dark. The final volume of micellar/nanoparticle dispersion was adjusted to the required volume with water. For pharmacokinetic studies, final concentration of conjugate in micelle dispersion was 10 mg/mL and for critical micellear concentration measurement, the dispersion was diluted accordingly to obtain a series concentration of conjugate in solution below and above the CMC. The micelles of MeO-PEGO-Succ-RSV were formed spontaneously after dispersing in water.

[6] = Stability of resveratrol-polymer conjugates in physiological relevant buffers; assay type: physicochemical; details: phosphate buffer 0.1M pH 7.4, 37°C
Description: Briefly, reversed phase chromatographic separation was employed for analysis with xxx column. The HPLC gradient system consisted of solvent A, buffer pH 7.0 with triethyl amine-formic acid (0.05 and 0.2% v/v in water) and solvent B, methanol. A 30 min linear gradient was programmed as follows: 0 min 5% B, 4 min 20% B, 7 min 20% B, 16 min 55% B, 18 min 55% B, 18.5 min 95% B, 23 min 95% B, 24 min 5% B. The flow rate was maintained at 1 mL/min and the injection volume was 50 μL. The HPLC analysis was performed at ambient temperature. Altech Apollo C18 150 X 4.6 mm, 5μ column was employed for seperation. This HPLC method was validated to precisely separate and quantify the trans-resveratrol in the analyte mixture. There was at least two min difference in retention times for the trans and cis isomers of resveratrol. The UV spectrum of the trans isomer is very different from the cis isomer, thus any change to the trans isomer could have been detected. Although quantification was performed using the fluorescence detector at an excitation wavelength of 320nm and emission at 400 nm, simultaneous UV chromatograms were also recorded for specificity and peak purity purposes.
A similar procedure was used to study the stability of MeO-PEG-PLAO-Succ-RSV in buffers; micelles were prepared as per section 2.8 and diluted 1:5 with buffer solutions and incubated at 37°C. […]

[7] = Stability of resveratrol-polymer conjugates in rat plasma; assay type: in vitro ADME; details: 37°C
Description: The MeO-PEGN-Succ-RSV, 2 kDa, 20 kDa and MeO-PEGO-Succ-RSV 2 kDa (MW quoted in the paper is the size of polymer only. Mw for RSV is 228 Da) at the 10 mg/mL were incubated in plasma at 37°C. […] Aliquots of plasma (0.1 mL) were withdrawn at regular intervals and mixed with acetonitrile (0.9 mL). The mixtures were centrifuged at 10,000 rpm for 5 minutes. The supernatant (0.25 mL) was diluted with water (0.25 mL) and analysed by HPLC [28]. All samples were protected against light during the experiments.

[8] = DPPH inhibition assay (in vitro antioxidant); assay type: biochemical; details: DPPH 1 x 10^-4M in methanol, 30 min, room temperature
Description: Final concentration of DPPH was maintained at 1 x 10^-4M. […] After 30 min incubation at room temperature, the absorbance of these solutions was determined at 518 nm using a Hewlett Packard 8452A, UV-VIS spectrophotometer (Waldbronn, Germany). […] The IC 50 values were determined from the plot of % DPPH remaining against concentration of RSV and its equivalent conjugates.

[9] = male, Wistar, rat, plasma, mean ± SD

## Oc1ccc(/C=C/c2cc(O)cc(O)c2)cc1 [Resveratrol, trans-Resveratrol]
[1]
  CL (previous reports): 183 to 317 mL/min/kg
  t½ (previous reports): 1.3 h
[2]
  Plasma concentration after two hours: below the limit of detection
[2]; mean ± SD
  CL: 335 ± 140 mL/min/kg
[2]; [9]
  AUC(0-inf): 2.4 ± 0.7 µM·h
  MRT: 1.3 ± 1 h
[2]; male, Wistar, rat, plasma, mean ± SD, read-out: Vss
  Vd: 26.8 ± 19.1 L/kg
[2]; male, Wistar, rat, plasma, mean ± SD, read-out: t½ (converted)
  half-life: 1.4 ± 0.9 h
[2]; male, Wistar, rat, plasma, iv, mean ± SD
  clearance: 333 mL/min/kg
[3]
  Time within which almost all was metabolized: ≤ 10 min

## CN(C)c1ccc(/N=N/c2ccccc2)cc1 [dimethyl yellow]
[4]
  Aqueous solubility: 13 µg/mL

## MeO-PEG succinyl ester resveratrol [MeO-PEGO-Succ-RSV 2 kDa]
[5]
  Behaviour in aqueous solution: self-aggregated into polymeric micelles
[6]
  % Conjugate Remaining at 24 hr pH 7.4: ~65%
[7]; rat plasma in vitro
  Plasma t1/2: <5 min
[7]; rat plasma, initial time point of 0 h
  Intact conjugate detected by HPLC at initial time point: almost no intact polymer conjugate was detected

## α-methoxy poly(ethylene glycol)-co-polylactide succinyl ester resveratrol [MeO-PEG-PLAO-Succ-RSV 2 kDa]
[8]
  IC 50 DPPH inhibition: similar

## α-methoxy-ω-carboxylic acid poly(ethylene glycol) succinylamide resveratrol [MeO-PEGN-Succ-RSV 2 kDa]
[8]
  IC 50 DPPH inhibition: similar
